Data: patent US20220411388A1, “SUBSTITUTED IMIDAZOLE CARBOXAMIDES AND THEIR USE IN THE TREATMENT OF MEDICAL DISORDERS” (Bial - R&D Investments, S.A., priority 2019, published 2022)
In brackets after ≈: the same amount, converted by molar mass.

Key:
acid ceramidase (hACR) = molecular target: T1, acid ceramidase (hACR) (Homo sapiens, UniProt Q13510); assay: Acid ceramidase inhibition, biochemical fluorescent assay with cell lysates overexpressing acid ceramidase (substrate Rbm14-12); settings: cell lysate, 1 hr preincubation at RT, pH 4.5, Rbm14-12 6.3 μM; read-out: IC50 hACR
T1 construct: expressed in transfected cells
T1 sequence (Q13510 22-395): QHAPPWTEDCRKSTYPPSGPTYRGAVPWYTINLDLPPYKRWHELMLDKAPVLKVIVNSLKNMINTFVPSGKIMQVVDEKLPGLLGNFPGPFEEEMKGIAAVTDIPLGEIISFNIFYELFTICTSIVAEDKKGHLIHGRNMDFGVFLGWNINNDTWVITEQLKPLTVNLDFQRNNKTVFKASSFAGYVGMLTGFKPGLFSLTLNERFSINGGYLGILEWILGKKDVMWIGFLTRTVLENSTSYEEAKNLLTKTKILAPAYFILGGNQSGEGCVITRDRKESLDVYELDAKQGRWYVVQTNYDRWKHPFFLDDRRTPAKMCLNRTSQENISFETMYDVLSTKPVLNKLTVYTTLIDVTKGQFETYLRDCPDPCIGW
Method: The ability of exemplary compounds to inhibit acid ceramidase was measured.
Cell lysates overexpressing acid ceramidase were used as the enzyme source for compound potency determination in a biochemical fluorescent assay. Briefly, compounds were preincubated with 10 μg protein of cell lysates in a dose-response manner for 1 hr at RT in the assay buffer containing 25 mM NaAC and 100 mM NaCl, pH 4.5. […] The samples were incubated with the stopping buffer at RT for 1 hr to allow the fluorescent product to be formed. […] Data were collected and used to determine the IC50 values of compounds by curve fitting to the four-parameter inhibition equation.

[1] = Compound solubility in water; type: physicochemical

IC50 (acid ceramidase (hACR)) [nM]	solubility [1] [µg/mL]	SMILES
< 200	7 (≈ 15.8 µM)	CN1CCN(CCOc2nc(-c3ccccc3)cn2C(=O)NCC#Cc2ccccc2)CC1 [Example 202]
200 to 1000	22 (≈ 71.6 µM)	COc1nc(C(C)(C)C)cn1C(=O)NCCCC(F)(F)F [Example 91, 4-(tert-Butyl)-2-methoxy-N-(4,4,4-trifluorobutyl)-1H-imidazole-1-carboxamide]
< 200	10 (≈ 35.5 µM)	COc1nc(C(C)(C)C)cn1C(=O)NCCCC(C)C [Example 102, 4-(tert-Butyl)-2-methoxy-N-(4-methylpentyl)-1H-imidazole-1-carboxamide]
200 to 1000	13.3 (≈ 49.7 µM)	COc1nc(C(C)(C)C)cn1C(=O)NCCC(C)C [Example 57, 4-(tert-Butyl)-N-isopentyl-2-methoxy-1H-imidazole-1-carboxamide]
> 1000	23 (≈ 85.1 µM)	O=C(NC1CCCCC1)n1cnc(-c2cccnc2)c1 [Example 61, N-Cyclohexyl-4-(pyridin-3-yl)-1H-imidazole-1-carboxamide]
200 to 1000	33 (≈ 81.1 µM)	O=C(NCCC1CCCC1(F)F)n1cc(Cl)nc1OCCN1CCOCC1 (centres unmarked) [Example 191, 4-Chloro-N-(2-(2,2-difluorocyclopentyl)ethyl)-2-(2-morpholinoethoxy)-1H-imidazole-1-carboxamide]
200 to 1000	2.9 (≈ 10.1 µM)	COc1ccc(-c2cn(C(=O)NCCC(C)C)cn2)cn1 [Example 36, N-iso-Pentyl-4-(6-methoxypyridin-3-yl)-1H-imidazole-1-carboxamide]
> 1000	24.1 (≈ 80.2 µM)	CCOc1nc(-c2ccccn2)cn1C(=O)NCCC1CC1 [Example 63, N-(2-Cyclopropylethyl)-2-ethoxy-4-(pyridin-2-yl)-1H-imidazole-1-carboxamide]
200 to 1000	12 (≈ 42.1 µM)	COc1nc(C2CC2)cn1C(=O)NCCc1ccccc1 [Example 130, 4-Cyclopropyl-2-methoxy-N-phenethyl-1H-imidazole-1-carboxamide]
200 to 1000	23.7 (≈ 73.1 µM)	O=C(NCCC1(C(F)(F)F)CC1)n1cnc(-c2cccnc2)c1 [Example 23, 4-(Pyridin-3-yl)-N-(2-(1-(trifluoromethyl)cyclopropyl)ethyl)-1H-imidazole-1-carboxamide]
200 to 1000	1.9 (≈ 7.44 µM)	O=C(NCCC1CC1)n1cnc(-c2ccccc2)c1 [Example 26, N-(2-Cyclopropylethyl)-4-phenyl-1H-imidazole-1-carboxamide]
< 200	29 (≈ 113 µM)	Cc1cn(C(=O)NC2CC2)c(Oc2ccccc2)n1 [Example 147, N-Cyclopropyl-4-methyl-2-phenoxy-1H-imidazole-1-carboxamide]
< 200	39 (≈ 98.6 µM)	Cc1cn(C(=O)NCC#CCc2ccccc2)c(OCCN2CCN(C)CC2)n1 [Example 201, 4-Methyl-2-(2-(4-methylpiperazin-1-yl)ethoxy)-N-(4-phenylbut-2-ynyl)-1H-imidazole-1-carboxamide]
< 200	31 (≈ 84.1 µM)	Cc1cn(C(=O)NCC#Cc2ccccc2)c(OCCN2CCOCC2)n1 [Example 196, 4-Methyl-2-(2-morpholinoethoxy)-N-(3-phenylprop-2-yn-1-yl)-1H-imidazole-1-carboxamide]
200 to 1000	23 (≈ 74.8 µM)	COc1nc(C2CCOC2)cn1C(=O)NCCCCC1CC1 (centres unmarked) [Example 131, N-(4-Cyclopropylbutyl)-2-methoxy-4-(tetrahydrofuran-3-yl)-1H-imidazole-1-carboxamide]
200 to 1000	10 (≈ 32.1 µM)	COCCOc1nc(C(C)(C)C)cn1C(=O)NCCC(C)C [Example 117, 4-(tert-Butyl)-N-iso-pentyl-2-(2-methoxyethoxy)-1H-imidazole-1-carboxamide]
< 200	13 (≈ 36.1 µM)	Cc1cn(C(=O)NC2CCC(F)(F)CC2)c(Oc2ccc(C#N)cc2)n1 [Example 163, 2-(4-Cyanophenoxy)-N-(4,4-difluorocyclohexyl)-4-methyl-1H-imidazole-1-carboxamide]
200 to 1000	23 (≈ 96.1 µM)	CCc1cn(C(=O)NCCC(C)C)c(OC)n1 [Example 77, 4-Ethyl-N-iso-pentyl-2-methoxy-1H-imidazole-1-carboxamide]
200 to 1000	13 (≈ 46.5 µM)	COc1nc(C2CCCC2)cn1C(=O)NCCC(C)C [Example 75, 4-Cyclopentyl-N-iso-pentyl-2-methoxy-1H-imidazole-1-carboxamide]
> 1000	23.9 (≈ 81.8 µM)	O=C(NCCc1ccccc1)n1cnc(-c2ccncc2)c1 [Example 6, N-Phenethyl-4-(pyridin-4-yl)-1H-imidazole-1-carboxamide]

IC50 (acid ceramidase (hACR)) [nM]	solubility [1] [µg/mL]	SMILES
< 200	22 (≈ 77.6 µM)	COc1nc(C)cn1C(=O)NCC#CCc1ccccc1 [Example 181, 2-Methoxy-4-methyl-N-(4-phenylbut-2-yn-1-yl)-1H-imidazole-1-carboxamide]
200 to 1000	28 (≈ 133 µM)	COc1nccn1C(=O)NCCC(C)C [Example 78, N-iso-pentyl-2-methoxy-1H-imidazole-1-carboxamide]
200 to 1000	21 (≈ 87.7 µM)	CC(C)CCNC(=O)n1ccnc1OC(C)C [Example 122, N-iso-Pentyl-2-iso-propoxy-1H-imidazole-1-carboxamide]
> 1000	16 (≈ 60.3 µM)	CCC1(NC(=O)n2cc(C(C)(C)C)nc2OC)CC1 [Example 129, 4-(tert-Butyl)-N-(1-ethylcyclopropyl)-2-methoxy-1H-imidazole-1-carboxamide]
> 1000	27 (≈ 105 µM)	COc1nc(-c2ccccc2)cn1C(=O)NC1CC1 [Example 140, N-Cyclopropyl-2-methoxy-4-phenyl-1H-imidazole-1-carboxamide]
200 to 1000	27.6 (≈ 102 µM)	O=C(NCCCC1CC1)n1cnc(-c2cccnc2)c1 [Example 32, N-(3-Cyclopropylpropyl)-4-(pyridin-3-yl)-1H-imidazole-1-carboxamide]
> 1000	35 (≈ 75 µM)	COc1nc(-c2cccnc2N2CCN(C)CC2)cn1C(=O)NCCCC1(C(F)(F)F)CC1 [Example 195]
< 200	4 (≈ 11.9 µM)	Cc1cn(C(=O)NC2CCC(F)(F)CC2)c(Oc2ccccc2)n1 [Example 172, N-(4,4-Difluorocyclohexyl)-4-methyl-2-phenoxy-1H-imidazole-1-carboxamide]
< 200	19 (≈ 66.1 µM)	Cc1cn(C(=O)NCCC(C)C)c(Oc2ccccc2)n1 [Example 146, N-iso-Pentyl-4-methyl-2-phenoxy-1H-imidazole-1-carboxamide]
< 200	14.3 (≈ 46.7 µM)	O=C(NCCCc1ccccc1)n1cnc(-c2cccnc2)c1 [Example 14, N-(3-Phenylpropyl)-4-(pyridin-3-yl)-1H-imidazole-1-carboxamide]
200 to 1000	13 (≈ 44.3 µM)	COc1nc(C2CCCCC2)cn1C(=O)NCCC(C)C [Example 109, 4-Cyclohexyl-N-iso-pentyl-2-methoxy-1H-imidazole-1-carboxamide]
< 200	7.9 (≈ 29 µM)	Cc1nc(-c2cccnc2)cn1C(=O)NCCC(C)C [Example 49, N-iso-Pentyl-2-methyl-4-(pyridin-3-yl)-1H-imidazole-1-carboxamide]
200 to 1000	20 (≈ 78.9 µM)	COc1nc(C(C)C)cn1C(=O)NCCC(C)C [Example 76]
> 1000	25 (≈ 88.9 µM)	COc1nc(C2CCCO2)cn1C(=O)NCCC(C)C (centres unmarked) [Example 84, N-iso-pentyl-2-methoxy-4-(tetrahydrofuran-2-yl)-1H-imidazole-1-carboxamide]
200 to 1000	32 (≈ 122 µM)	O=C(NCCC1CC1)n1cnc(-c2cscn2)c1 [Example 69, N-(2-Cyclopropylethyl)-4-(thiazol-4-yl)-1H-imidazole-1-carboxamide]
< 200	0.8 (≈ 2.47 µM)	O=C(NCCC1(C(F)(F)F)CC1)n1cnc(-c2ccccc2)c1 [Example 25, 4-Phenyl-N-(2-(1-(trifluoromethyl)cyclopropyl)ethyl)-1H-imidazole-1-carboxamide]
< 200	5 (≈ 17.4 µM)	Cc1cnc(OC(C)C)n1C(=O)NCCc1ccccc1 [Example 150, 2-iso-Propoxy-5-methyl-N-phenethyl-1H-imidazole-1-carboxamide]
< 200	22 (≈ 68.9 µM)	COc1nc(C)cn1C(=O)NCCCCC1(C(F)(F)F)CC1 [Example 155, 2-Methoxy-4-methyl-N-(4-(1-(trifluoromethyl)-cyclopropyl)butyl)-1H-imidazole-1-carboxamide]
> 1000	25 (≈ 80 µM)	O=C(NCCC1CC1)n1cc(-c2cccnc2)nc1OC1CC1 [Example 66, 2-Cyclopropoxy-N-(2-cyclopropylethyl)-4-(pyridin-3-yl)-1H-imidazole-1-carboxamide]
< 200	0.8 (≈ 2.39 µM)	CC(C)c1ccc(-c2cn(C(=O)NCCc3ccccc3)cn2)cn1 [Example 43, 4-(6-iso-Propylpyridin-3-yl)-N-phenethyl-1H-imidazole-1-carboxamide]
